Reference: patent publication US20250302719A1, “COLLAGEN PRODUCTION PROMOTER, COSMETIC COMPOSITION OR EXTERNAL PREPARATION FOR SKIN, AND PREPARATION FOR ORAL ADMINISTRATION” (YAMASA CORPORATION, priority 2022, published 2025)

Legend:
[1] = system: Normal human fibroblasts (NHDF); test: Type I collagen production by normal human fibroblasts treated with culture supernatant from three-dimensional cultured epidermis (Example 1, ELISA); format: cell-based; settings: three-dimensional cultured epidermis treated with CMP, 2Na 0.125, 0.25, 1.0, 2.0 w/v % from stratum corneum side, supernatant on fibroblasts 24 hours
Protocol: To reproduce the phenomenon that would occur in actual epidermis, the effect of promoting collagen production for pyrimidine nucleotides was evaluated with a culture supernatant from three-dimensional cultured epidermis, and with fibroblasts.
Three-dimensional cultured epidermis (LabCyte EPI MODEL 24; manufactured by J TEC) was set in a 24-well plate to which 500 μL of the attached assay medium was added, and conditioned overnight at 37° C. 50 μL of sample-containing PBS (-) was applied from the stratum corneum side and cultured for 24 hours. After removing the sample-containing PBS (-), the plate was washed with PBS (-). The samples to be treated with UVB were irradiated with 600 mJ/cm^2 using a UVB lamp (TL20W/12RS; manufactured by PHILIPS). For both samples with and without the UVB treatment, the media were replaced with fresh media, 50 μL of sample-containing PBS (-) was newly applied from the stratum corneum side, and further cultured for 48 hours. After culturing, the culture supernatant was collected. The concentrations of CMP, 2Na in the respective samples were 0, 0.125, 0.25, 1.0 and 2.0 (w/v %), respectively. […]
The culture supernatant from normal human fibroblasts was collected and an amount of type I collagen was quantified by ELISA. The protein amount of the culture supernatant was also measured by BCA protein assay.

Collagen 1A1 (COL1A1) = test: mRNA expression of COL1A1 in fibroblasts treated with culture supernatant from three-dimensional cultured epidermis (Example 2, real time PCR); format: cell-based, human; settings: three-dimensional cultured epidermis treated with CMP, 2Na 1.0, 2.0 w/v %; supernatant on fibroblasts; GAPDH endogenous control
Protocol: Similarly, the mRNA expression levels of Collagen 1A1 (COL1A1), a factor related to type I collagen synthesis, were quantified by real-time PCR.
Three-dimensional cultured epidermis (LabCyte EPI MODEL 24; manufactured by J TEC) was set in a 24-well plate to which 500 μL of the attached assay medium was added, and conditioned overnight at 37° C. 50 μL of sample-containing PBS (-) was applied from the stratum corneum side and cultured for 24 hours. After removing the sample-containing PBS (-), the plate was washed with PBS (-). The medium was replaced with a fresh medium, 50 μL of sample-containing PBS (-) was newly applied from the stratum corneum side, and further cultured for 48 hours. After culturing, the culture supernatant was collected. The concentrations of CMP, 2Na in the respective samples were 0, 1.0, and 2.0 (w/v %), respectively.
Normal human fibroblasts were treated with the culture supernatant by the same method as that of Example 1. RNA was extracted from NHDF using RNeasy Mini Kit (QIAGEN), and mRNA expression analysis for collagen 1A1 (COL1A1) was performed by real time PCR ([…]). Glyceraldehyde 3-phosphate dehydrogenase (GAPDH) was used as an endogenous control.

[2] = system: Normal human fibroblasts (NHDF); test: Type I collagen production by normal human fibroblasts treated with normal human epidermal cell culture supernatant (K-CM, Example 3, ELISA); format: cell-based; settings: for amount of collagen in the culture supernatant of normal human fibroblasts (type I collagen): K-CM: supernatant of normal human epidermal cells treated with 1.25, 2.5, 5 mM sample for 24 hours, fibroblasts 24 hours
Protocol: (§1) The effects of promoting collagen production for pyrimidine nucleotides were then evaluated with the culture supernatant from normal human epidermal cells and with fibroblasts. In this evaluation, the effects were compared for the case where the fibroblasts were directly treated with pyrimidine nucleotides and the case where the fibroblasts were treated with the normal human epidermal cell culture supernatant treated with the pyrimidine nucleotides.
Normal human epidermal cells (NHEK; Kurabo) were seeded in a 96-well plate at a density of 2.5×10^4 cells/well and cultured at 37° C. for 24 hours. The medium was replaced with 100 μL of sample-containing medium (HuMedia-KG2; Kurabo) and cultured for 24 hours. After culturing, the culture supernatant was collected. The sample solutions used were 0, 1.25, 2.5, and 5 (mM) (i.e., 0, 0.0459, 0.0918, and 0.184 (w/v %)) of CMP, 2Na, and 0, 1.25, 2.5, and 5 (mM) (i.e., 0, 0.046, 0.092, and 0.184 (w/v %)) of UMP, 2Na.
Normal human fibroblasts (NHDF; Kurabo) were seeded in a 96-well plate at a density of 2.5×10^4 cells/well/100 μL and cultured at 37° C. for 24 hours. The medium was then replaced with 100 μL of the culture supernatant obtained in the culture supernatant acquisition step from the three-dimensional cultured epidermis as described above and cultured for 24 hours.
(§2) The culture supernatant of normal human fibroblasts was collected and an amount of type I collagen was quantified by ELISA. The protein amount of the culture supernatant was also measured by BCA protein assay.

[3] = system: Normal human fibroblasts (NHDF); test: Type I collagen production by normal human fibroblasts directly treated with sample (Example 3, ELISA); format: cell-based; settings: direct treatment of normal human fibroblasts with 1.25, 2.5, 5 mM sample, 24 hours
Protocol: as §1
Normal human fibroblasts (NHDF; Kurabo) were seeded in a 96-well plate at a density of 2.55×10^4 cells/well/100 μL and cultured at 37° C. for 24 hours. The medium was then replaced with 100 μL of media (HuMedia-KG2; Kurabo) containing CMP, 2Na at 0, 1.25, 2.5, 5 (mM) (i.e., 0, 0.0459, 0.0918, 0.184 (w/v %)) and UMP, 2Na at 0, 1.25, 2.5, 5 (MM) (i.e., 0, 0.046, 0.092, 0.184 (w/v %)), and cultured for 24 hours.
as §2

[4] = system: freshly extracted human skin; test: Ex vivo evaluation test using freshly extracted human skin, elastica-van Gieson staining of collagen fibers (Example 4); settings: CMP, 2Na 1.0, 2.0 w/v % applied from stratum corneum side, total of 72 hours
Protocol: To evaluate the effect on actual skin with greater precision, an ex vivo evaluation test was conducted using freshly extracted human skin.
Abdominal skin tissue was used, which was taken from a patient during cosmetic surgery, after obtaining informed consent for use in research. The extracted skin was placed in a culture plate supplemented with 1.3 ml of D-MEM/Ham's F-12 medium, and conditioned overnight at 37° C. in 5% CO2. An appropriate amount of PBS (-) containing a given concentration of each sample was applied from the stratum corneum side, and further cultured for 24 hours. The treatment was continued for a total of 72 hours while replacing the sample and medium with fresh ones every 24 hours. The concentrations of CMP, 2Na in the respective samples were 0, 1.0, and 2.0 (w/v %).
After the cultured skin tissue was fixed according to a standard method, skin tissue sections were prepared, collagen fibers were stained with elastica-van Gieson stain, and observed under a microscope.

[5] = system: cultured human skin fibroblasts; settings: uridylic acid alone, as disclosed in Patent Literature 1; cited from earlier work

## Nc1ccn([C@@H]2O[C@H](COP(=O)(O)O)[C@@H](O)[C@H]2O)c(=O)n1 [CMP, 2Na, disodium cytidylate]
[1]; UVB 600 mJ/cm^2
  amount of collagen in the culture supernatant from normal human fibroblasts (type I collagen): increased
[1]; UVB (-)
  amount of collagen in the culture supernatant from normal human fibroblasts (type I collagen): increased
Collagen 1A1 (COL1A1)
  expression level of COL1A1 (mRNA, relative to 0 w/v %): increased
[2]; Example 3
  effect of promoting collagen production, cytidylic acid compared with uridylic acid: higher effect of promoting collagen production
[2]
  amount of collagen in the culture supernatant of normal human fibroblasts (type I collagen): increased
[3]
  amount of collagen (type I collagen): no increase
[4]
  collagen fibers in dermis (elastica-van Gieson stain): tended to result in denser collagen fibers

## O=c1ccn([C@@H]2O[C@H](COP(=O)(O)O)[C@@H](O)[C@H]2O)c(=O)[nH]1 [UMP, 2Na, disodium uridylate]
[2]
  amount of collagen in the culture supernatant of normal human fibroblasts (type I collagen): increased
[3]
  amount of collagen (type I collagen): no increase
[5]
  effect of promoting collagen production: no effect of promoting collagen production
